Values quoted from earlier work in patent US20240400784A1, “Method for Screening Solvent for Extracting Polyvinyl Chloride, Method for Recycling Waste, Recycled Polyvinyl Chloride, and Composition” (LG Chem, Ltd., priority 2021, published 2024).

Settings: value in Table 1 of Document #1; swollen PVC and solvent volume based on PVC volume

Compound | PVC swelling ratio
CCCC(C)=O [2-Pentanone] | 12.69
CCCCCO [1-Pentanol] | 1.02
C1CCCCC1 [Cyclohexane] | 1.04
CC(=O)CC(C)C [4-Methylpentan-2-one] | 7.06
OC1CCCCC1 [Cyclohexanol] | 1.1
c1ccccc1 [Benzene] | 1.07

The next lines start with the values.

PVC swelling ratio | Compound
2.38 | CCOC(C)=O [Ethyl acetate]
1 | Water
